Data published in patent US5424196A, “Enzymatic process for preparing 7-aminocephalosporanic acid and derivatives” (Antibioticos S.p.A., priority 1990, dated 1995).

Assays:
[1] = biological target: T1, D-amino acid oxidase (DAO; EC-1.4.3.3) from Rhodotorula gracilis ATCC 26217 (Rhodotorula toruloides, UniProt P80324); test: Substrate specificity (Km) of D-amino acid oxidase; format: biochemical; details: compared with D-alanine, the specific substrate for this enzyme
T1 construct: production of Rhodotorula gracilis cells of high DAO enzyme content; made in house; host or cells: Rhodotorula gracilis ATCC 26217 (natural producer, aerobic fermentation)
T1 sequence (P80324 25-368): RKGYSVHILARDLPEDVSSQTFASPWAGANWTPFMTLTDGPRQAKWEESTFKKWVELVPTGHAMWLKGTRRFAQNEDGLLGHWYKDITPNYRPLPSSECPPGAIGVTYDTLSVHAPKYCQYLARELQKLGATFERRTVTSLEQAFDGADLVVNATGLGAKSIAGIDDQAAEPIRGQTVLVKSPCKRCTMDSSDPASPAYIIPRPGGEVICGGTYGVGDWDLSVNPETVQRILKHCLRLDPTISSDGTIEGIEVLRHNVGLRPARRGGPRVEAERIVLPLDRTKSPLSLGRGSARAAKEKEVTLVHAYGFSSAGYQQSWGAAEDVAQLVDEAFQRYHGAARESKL
Method: The activity of the D-amino acid oxidase enzyme is evaluated by measuring the H2 O2 quantity evolved on reacting the enzyme on a substrate of D-alanine in 100 mM phosphate buffer at pH 7.5 saturated with oxygen at 37° C.
The H2 O2 is determined kinetically using a peroxidase-based reactant, 4-aminophenazone and 2,4-dichlorophenolsulphonate by the modified Trinder reaction (J. Clin. Path. 22, 246, 1969). The red colour which forms (quinonimine) is proportional to the hydrogen peroxide evolved in the test and is measured spectrophotometrically at 510 nm.
One unit of D-amino acid oxidase is that quantity of enzyme (free or immobilized) which under the conditions used in the method produces one μmole of H2 O2 per minute.

[2] = biological target: T1, D-amino acid oxidase (DAO; EC-1.4.3.3) from Rhodotorula gracilis ATCC 26217; test: Dissociation constant of the FAD cofactor from D-amino acid oxidase; format: binding; details: read-out: dissociation constant (bond with the FAD)

## CC(=O)OCC1=C(C(=O)O)N2C(=O)[C@@H](NC(=O)CCC[C@@H](N)C(=O)O)[C@H]2SC1 [Cephalosporin C]
[1]
  Km: very similar to those encountered for D-alanine

## Cc1cc2nc3c(=O)[nH]c(=O)nc-3n(C[C@H](O)[C@H](O)[C@H](O)COP(=O)(O)OP(=O)(O)OC[C@H]3O[C@@H](n4cnc5c(N)ncnc54)[C@H](O)[C@@H]3O)c2cc1C [FAD]
[2]
  Kd: 22 nM
